Measurements taken from patent publication US7109193B2, “Tricyclic diazepines tocolytic oxytocin receptor antagonists” (Wyeth, priority 2001, dated 2006).

What follows are compounds tested against T1, human vasopressin V2 receptor subtype (Homo sapiens, UniProt P30518) (assay: Vasopressin binding in Chinese Hamster Ovary cell membranes expressing human vasopressin V2 subtype receptors). Details: 100 nM, CHO cell membranes, [3H]arginine vasopressin, values without parentheses.
T1 construct: host or cells: CHO cells (pZeoSV vector)
T1 sequence (P30518 whole entry): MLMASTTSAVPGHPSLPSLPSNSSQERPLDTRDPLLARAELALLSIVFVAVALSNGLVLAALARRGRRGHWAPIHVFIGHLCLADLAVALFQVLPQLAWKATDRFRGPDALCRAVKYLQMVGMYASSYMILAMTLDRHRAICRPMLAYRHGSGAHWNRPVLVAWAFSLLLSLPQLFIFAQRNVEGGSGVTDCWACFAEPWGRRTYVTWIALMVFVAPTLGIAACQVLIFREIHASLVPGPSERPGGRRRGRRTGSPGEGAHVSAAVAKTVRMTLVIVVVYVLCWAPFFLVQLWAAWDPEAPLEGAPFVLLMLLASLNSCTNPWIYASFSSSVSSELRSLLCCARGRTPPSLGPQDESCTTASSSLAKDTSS
Summary of the method: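 Radioligand displacement on membranes from CHO cells stably expressing human V2 receptor, 25 to 50 μg protein/well, in 50 mM Tris-HCl pH 7.4 with MgCl2, BSA and protease inhibitors. [^3H]arginine vasopressin (8 nM working solution) incubated 60 min at room temperature; bound label measured by filtration and scintillation counting.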
`Cc1ccccc1-c1ccc(C(=O)N2Cc3ccc(C(=O)N(C)C4CCN(C)CC4)n3Cc3ccccc32)cc1` [Example 178, N-Methyl-10-[(2′-methyl[1,1′-biphenyl]-4-yl)carbonyl]-N-(1-methyl-4-piperidinyl)-10,11-dihydro-5H-pyrrolo[2,1-c][1,4]benzodiazepine-3-carboxamide] was tested, and the inhibition at 0.1 µM was 15%.
Work on `COc1cc(C(=O)N2Cc3ccc(C(=O)N4CCN(CCN(C)C)CC4)n3Cc3ccccc32)ccc1-c1ccccc1C` [Example 201, {4-[2-(Dimethylamino)ethyl]-1-piperazinyl}{10-[(2-methoxy-2′-methyl[1,1′-biphenyl]-4-yl)carbonyl]-10,11-dihydro-5H-pyrrolo[2,1-c][1,4]benzodiazepin-3-yl}methanone] yielded an inhibition at 0.1 µM of 19%.
`COc1ccccc1-c1ccc(C(=O)N2Cc3ccc(C(=O)N4CCN(CCN5CCOCC5)CC4)n3Cc3ccccc32)cc1OC` [Example 214, {10-[(2,2′-Dimethoxy[1,1′-biphenyl]-4-yl)carbonyl]-10,11-dihydro-5H-pyrrolo[2,1-c][1,4]benzodiazepin-3-yl}{4-[2-(4-morpholinyl)ethyl]-1-piperazinyl}methanone] gave an inhibition at 0.1 µM of 11%.
Compound `C=CCN1CCN(C(=O)c2ccc3n2Cc2ccccc2N(C(=O)c2ccc(-c4ccccc4C(F)(F)F)c(C)c2)C3)CC1` [Example 230, (4-Allyl-1-piperazinyl)(10-{[2-methyl-2′-(trifluoromethyl)[1,1′-biphenyl]-4-yl]carbonyl}-10,11-dihydro-5H-pyrrolo[2,1-c][1,4]benzodiazepin-3-yl)methanone] has an inhibition at 0.1 µM of 4%.
For `COc1cccc(-c2cc(OC)c(C(=O)N3Cc4ccc(C(=O)N(C)C5CCN(C)CC5)n4Cc4ccccc43)cc2Cl)c1` [Example 181, 10-[(6-Chloro-3,3′-dimethoxy[1,1′-biphenyl]-4-yl)carbonyl]-N-methyl-N-(1-methyl4-piperidinyl)-10,11-dihydro-5H-pyrrolo[2,1-c][1,4]benzodiazepine-3-carboxamide], the inhibition at 0.1 µM was 12%.
In the case of `CN(C)CCN1CCN(C(=O)c2ccc3n2Cc2ccccc2N(C(=O)c2ccc(-c4cccc5ccccc45)cc2Cl)C3)CC1` [Example 205, {10-[2-Chloro-4-(1-naphthyl)benzoyl]-10,11-dihydro-5H-pyrrolo[2,1-c][1,4]benzodiazepin-3-yl}{4-[2-(dimethylamino)ethyl]-1-piperazinyl}methanone], the inhibition at 0.1 µM is reported as 18%.
`COc1cc(C(=O)N2Cc3ccc(C(=O)NCCC4CCCN4C)n3Cc3ccccc32)ccc1-c1ccccc1C` (stereo not shown) [Example 167, 10-[(2-Methoxy-2′-methyl[1,1′-biphenyl]-4-yl)carbonyl]-N-[2-(1-methyl-2-pyrrolidinyl)ethyl]-10,11-dihydro-5H-pyrrolo[2,1-c][1,4]benzodiazepine-3-carboxamide] showed an inhibition at 0.1 µM of 20%.
For `COc1ccccc1-c1ccc(C(=O)N2Cc3ccc(C(=O)N(C)C4CCN(C)CC4)n3Cc3ccccc32)cc1` [Example 177, 10-[(2′-Methoxy[1,1′-biphenyl]-4-yl)carbonyl]-N-methyl-N-(1-methyl-4-piperidinyl)-10,11-dihydro-5H-pyrrolo[2,1-c][1,4]benzodiazepine-3-carboxamide], the inhibition at 0.1 µM was 18%.
`CN1CCCC1CCNC(=O)c1ccc2n1Cc1ccccc1N(C(=O)c1ccc(-c3cccc4ccccc34)cc1Cl)C2` (stereo not shown) [Example 173, 10-[2-Chloro-4-(1-naphthyl)benzoyl]-N-[2-(1-methyl-2-pyrrolidinyl)ethyl]-10,11-dihydro-5H-pyrrolo[2,1-c][1,4]benzodiazepine-3-carboxamide] was tested, and the inhibition at 0.1 µM was 17%.
In the case of `COc1cccc(-c2cc(OC)c(C(=O)N3Cc4ccc(C(=O)NCCN5CCCCC5)n4Cc4ccccc43)cc2Cl)c1` [Example 156, 10-[(6-Chloro-3,3′-dimethoxy[1,1′-biphenyl]-4-yl)carbonyl]-N-[2-(1-piperidinyl)ethyl]-10,11-dihydro-5H-pyrrolo[2,1-c][1,4]benzodiazepine-3-carboxamide], the inhibition at 0.1 µM is reported as 12%.
